Test results as given in patent publication US20060270641A1, “Method for chemoprevention of prostate cancer” (priority 2005, published 2006).
Values belong to the compound of their own block, whether it stands above or below them.

Legend:
LNCaP tumors = assay: Regression of established LNCaP tumors in athymic nude mice; type: in vivo
Method: Materials and Methods: One million LNCaP cells in Matrigel were subcutaneously injected into each flank of athymic nude mice. A total of 40 mice were injected. After approximately 3-4 weeks, visible tumors developed. After the tumor size was recorded in two dimensions, the mice were divided into placebo and treatment groups based on equivalent tumor burden. A single pellet (placebo versus toremifene 35 mg) was subcutaneously implanted between the scapulae of each mouse. Weekly measurements of the tumor size were recorded. Tumor volume was calculated (tumor volume=[…], where L=tumor length and W=width). The tumor volume at the time of pellet implantation served as the point of reference for future comparison of that tumor's size variation. The weekly variations of each tumor volume were recorded as percent differentiation from the original measurement at pellet implantation.

[1] = test system: human stromal fibroblast cells; assay: TGFβ synthesis in human stromal fibroblast cells; type: cell-based
[2] = test system: ventral prostate of TRAMP mice; assay: Chemopreventive activity in TRAMP transgenic mice, absence of palpable tumor formation; type: in vivo, mouse; conditions: for Week at which tumor formation in the ventral prostate was noted: n=12, placebo week 17; for Animals still tumor-free: all control animals had tumors
Source text: The study of prostate cancer chemoprevention has been hindered by the lack of appropriate animal models. The recent development of the transgenic adenocarcinoma mouse prostate (TRAMP) model enables the study of chemoprevention. In the TRAMP model, which is described in Greenberg et al., A Prostate cancer in a transgenic mouse, Proc. Natl Acad. Sci. USA, 1995, Vol. 92, pages 3439-3443, the PB-SV40 large T antigen (PB-Tag) transgene is expressed specifically in the epithelial cells of the murine prostate. As a result, this model has several advantages over currently existing models: 1) mice develop progressive forms of prostatic epithelial hyperplasia as early as 10 weeks and invasive adenocarcinoma around 18 weeks of age; 2) the metastatic spread of prostate cancer pattern mimics human prostate cancer with the common sites of metastases being lymph node, lung, kidney, adrenal gland, and bone; 3) the development as well as the progression of prostate cancer can be followed within a relatively short period of 10-30 weeks; 4) the tumors arise with prostate cancer transgene prior to the onset of clinical prostate cancer to directly test treatment with chemopreventive agents that may alter prostate carcinogenesis.
A study was undertaken to test the efficacy of chemopreventive agents in TRAMP transgenic animals (PBTag×FVBwt)(provided by Dr. Norman Greenberg, Baylor College of Medicine, Tex.). […] The TRAMP transgenic male litters were screened for the Large Tag transgene, and the positive males were used in the study. The antiestrogen toremifene, which was to be tested for its possible chemopreventive effects, was incorporated in customized pellets (Innovative Research of America, Sarasota, Fla.), and chemopreventive treatment of mice was initiated postnatally at 30 days (average mouse weight 14 g) Four groups of 10-12 animals each received subcutaneous implantations of 90 day-release toremifene-containing pellets. The diffusible drug dosage, adjusted for growth related changes in weight, was designed to deliver either a low dose (6 mg/kg) or a high dose (30 mg/kg) of toremifene. Control animals (n=IO) received placebo implants The efficacy of the treatment was measured by the absence of palpable tumor formation. The murine prostate tumors were harvested and evaluated by molecular and histological techniques

PIN = conditions: 60 mg daily for 4 months
[3] = test system: TRAMP mouse ventral prostate; assay: Histological examination (H&E) of TRAMP prostate tissue; type: in vivo
Method: Tumors from the placebo and high toremifene-treated groups taken at the time of palpation were evaluated histologically. FIG. 2A is an H&E section of the ventral prostate of a 17-week-old normal adult mouse.

prostate of TRAMP mice = assay: TRAMP confirmation study: wholemount, histology, large T antigen immunohistochemistry; type: in vivo, mouse
Method: The present study focuses on the histological and molecular changes associated with development of prostate tumor in control animals and the mechanism of toremifene chemopreventive action with TRAMP animals which are bred, screened and treated with sustained-release drug pellets. At predetermined times, groups of 5 animals were sacrificed and their prostates were removed for analysis. The prostate glands were evaluated for the presence of tumor by histology, wholemount dissections, and large T antigen immunohistochemistry. To date, the Placebo and the Toremifene treatments have been completed for the 7, 10, 15 and 20 week time-points, and the results are described below.
Results: Prostatic wholemounts for 7,10,15, and 20 weeks for the various groups have been completed. […] By 20 weeks, there is a striking delay in tumor occurrence in the Toremifene treated group up to 35 weeks FIG. 4). […] For histological evaluation, tissue samples were fixed, processed and paraffin embedded. Sections ([…]) were cut and stained by routine H&E method.

[4] = test system: prostate glands of TRAMP mice; assay: SERMs in prevention of prostate cancer in the TRAMP model (wholemount and histology at 20 weeks); type: in vivo, mouse; conditions: sacrificed at 20 weeks; for Animals with prostate cancer / animals evaluated (column has no head): placebo 5/5; for Percent of animals with prostate cancer (column has no head): placebo 100%
Method: Experimental design: Chemopreventive treatment of mice is initiated post-natal at 30 days. Three groups of 50 hybrid TRAMP male mice each are treated with either Tamoxifen citrate, Raloxifene (SERMs), or Faslodex (pure antiestrogen ICI 182,780). The drugs are obtained as customized sustained-release pellets (Innovative Research of America, Sarasota, Fla.) and delivered as subcutaneous implants (see preliminary data). Control animals receive placebo implant with no pharmacological activity. Animals (n=10) are sacrificed at periodic intervals, 10, 15, 20, 25 and 30 weeks age, and the efficacy of the treatment leading to either absence of tumor formation or reduction in tumor size, if present, is assessed by comparison with placebo control animals. Blood is collected to evaluate changes in serum androgens and estrogens with each treatment Prostatic tissues is saved: a) for morphometric studies; b) for histologic studies (the tissue will be fixed in 10% buffered formalin, processed and paraffin embedded); c) for molecular studies (the tissues is frozen in liquid nitrogen and stored at −70° C.). Necropsies and survival data is also recorded.
The results of the experiment reveal the relative chemopreventive efficacy of the various antiestrogens in the delay or prevention of prostate cancer in the TRAMP model. The morphological studies indicate the gross changes, if any, in the development of the prostate size and ductal pattern as a result of each treatment. Paraffinized tissue sections are stained using standard H&E techniques for histological changes such as PIN that will be assessed to monitor the appearance of precancerous lesions as a precursor of prostatic adenocarcinoma. Serum estradiol and total testosterone levels are measured for each age interval to assess any changes in these hormones and whether or not they correlate to changes in PIN. The peptide growth factor levels of TGF, TGF 1, TGF 3, and bFGF are quantitative in prostate samples taken at each interval. Corresponding peptide growth factor receptors are also assessed for EGFR and TGF RI and RII.

Quality of life, including potency and libido (PIN): unchanged | Serum PSA, serum free testosterone, serum total testosterone and serum estradiol (PIN): remained in the normal ranges
SMILES: CN(C)CCOc1ccc(/C(=C(/CCCl)c2ccccc2)c2ccccc2)cc1 [Toremifene]
Mean tumor volume after treatment (LNCaP tumors; toremifene 35 mg pellet, 1.90 mm^3 at pellet implantation, placebo increased to 2.33): 1.68 mm^3 | Mean serum PSA level (LNCaP tumors; toremifene 35 mg pellet, not statistically significant vs placebo (p=0.755)): 2.80 ng/mL | Change of mean tumor volume (LNCaP tumors; toremifene 35 mg pellet, vs volume at pellet implantation): −0.22 mm^3 | % Change in volume relative to day 0 of treatment (LNCaP tumors; week 3, toremifene 35 mg sc pellet, N=11): −34.58% | % Change in volume relative to day 0 of treatment (LNCaP tumors; week 4, toremifene 35 mg sc pellet, N=7): −61.01% | % Change in volume relative to day 0 of treatment (LNCaP tumors; week 5, toremifene 35 mg sc pellet, N=7): −74.51% | % Change in volume relative to day 0 of treatment (LNCaP tumors; week 6, toremifene 35 mg sc pellet, N=5): −61.72% | TGFβ synthesis [1]: significantly induce | Delay of time to palpable tumors in 25% of the animals ([2]; high and low toremifene groups vs placebo): 7-8 weeks | Time at which tumors were palpable in 25% of the animals ([2]; high and low toremifene groups, placebo week 23): 30-31 weeks | Week at which tumor formation in the ventral prostate was noted ([2]; high dose (30 mg/kg) 90 day-release sc pellet): 19 week | Week at which tumor formation in the ventral prostate was noted ([2]; low dose (6 mg/kg) 90 day-release sc pellet): 28 week | Increase of latency period for development of cancer in the ventral prostate ([2]; vs placebo): up to 11 weeks | Animals still tumor-free ([2]; week 33, high dose (30 mg/kg)): 60% | Animals still tumor-free ([2]; week 33, low dose (6 mg/kg)): 72% | Acute or chronic toxicities (PIN): no acute or chronic toxicities | Complete response (PIN; 16 patients completed): 75% | Patients who had prostate cancer but the amount of PIN was reduced (PIN; of 16 patients): 3 patients | Patients with stable disease (PIN epithelium with atrophic and degenerative changes) (PIN; of 16 patients): 1 patient | Patients with regression of PIN to benign or atrophic prostate tissue (PIN; rebiopsy (8 biopsies)): 12 out of 16 | Mitotic index relative to placebo-treated animal ([3]; toremifene-treated 30-week-old TRAMP mouse vs placebo-treated 16-week-old): much lower | Prostate histology (glandular architecture) ([3]; toremifene-treated 30-week-old TRAMP mouse, H&E, FIG. 2C): retains much of the normal glandular architecture | Delay in the occurrence of prostate cancer (wholemount analysis) (prostate of TRAMP mice; FIG. 3, placebo tumors by 15-20 weeks of age): up to 20 weeks | Delay in tumor occurrence (prostate of TRAMP mice; FIG. 4): up to 35 weeks | Effect on ductal development and tissue differentiation (histology) (prostate of TRAMP mice; H&E sections): inhibited the ductal development and tissue differentiation | Animals with prostate cancer / animals evaluated (column has no head) ([4]; 20 mg/kg/d): 1/7 | Percent of animals with prostate cancer (column has no head) ([4]; 20 mg/kg/d): 14.2%

SMILES: O=C(c1ccc(OCCN2CCCCC2)cc1)c1c(-c2ccc(O)cc2)sc2cc(O)ccc12 [Raloxifene, 6-hydroxy-2-(4-hydroxyphenyl)-3-[4-(2-piperidinoethoxy)benzoyl]benzo[b]thiophene]
Animals with prostate cancer / animals evaluated (column has no head) ([4]; 20 mg/kg/d): 3/10 | Percent of animals with prostate cancer (column has no head) ([4]; 20 mg/kg/d): 30%

SMILES: CC/C(=C(\c1ccccc1)c1ccc(OCCN(C)C)cc1)c1ccccc1 [Tamoxifen]
Animals with prostate cancer / animals evaluated (column has no head) ([4]; 20 mg/kg/d): 2/9 | Percent of animals with prostate cancer (column has no head) ([4]; 20 mg/kg/d): 22%

SMILES: C[C@]12CC[C@@H]3c4ccc(O)cc4C[C@@H](CCCCCCCCC[S+]([O-])CCCC(F)(F)C(F)(F)F)[C@H]3[C@@H]1CC[C@@H]2O (some centres unmarked) [Faslodex]
Animals with prostate cancer / animals evaluated (column has no head) ([4]; 10 mg/kg/d): 8/11 | Percent of animals with prostate cancer (column has no head) ([4]; 10 mg/kg/d): 72%
